Earlier results in US12247053B2 (priority 2018, dated 2025).

Test system: American isolates of H3N2

Row | SMILES | measured resistance [%]
1 | NC12CC3CC(CC(C3)C1)C2 [amantadine] | 91
2 | CC(N)C12CC3CC(CC(C3)C1)C2 (centres unmarked) [rimantadine] | 91
